PubChem BioAssay AID2060506 (Molecular Pharmacology Branch, DTP, NCI, 2025)

Test system: 598228-144-R-J1-PDC complex spheroid viability
Assay: Anticancer human tumor 598228-144-R-J1-PDC patient-derived serous endometrial adenocarcinoma cell line growth inhibition [GQUAD]
Conditions: for IC50: curve of first compound; for viability, T/C: stronger effect = lower value; active = viability on the fitted dose curve at most 10% of control; inactive = the rest
How it was run: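 Viability of tumor cells grown as complex spheroids with endothelial and stromal cells, exposed to drug combinations. Top concentration at or near clinical Cmax (else 10 microM), diluted in half-log increments.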

[1] = second compound 0.0316 µM, first compound 0.0316 µM
[2] = second compound 0.0316 µM, first compound 0.1 µM
[3] = second compound 0.0316 µM, first compound 0.316 µM
[4] = second compound 0.0316 µM, first compound 1 µM
[5] = second compound 0.0316 µM, first compound 3.16 µM
[6] = second compound 0.0316 µM, first compound 10 µM
[7] = second compound 0.1 µM, first compound 0.0316 µM
[8] = second compound 0.1 µM, first compound 0.1 µM
[9] = second compound 0.1 µM, first compound 0.316 µM
[10] = second compound 0.1 µM, first compound 1 µM
[11] = second compound 0.1 µM, first compound 3.16 µM
[12] = second compound 0.1 µM, first compound 10 µM
[13] = second compound 0.316 µM, first compound 0.0316 µM
[14] = second compound 0.316 µM, first compound 0.1 µM
[15] = second compound 0.316 µM, first compound 0.316 µM
[16] = second compound 0.316 µM, first compound 1 µM
[17] = second compound 0.316 µM, first compound 3.16 µM
[18] = second compound 0.316 µM, first compound 10 µM
[19] = second compound 1 µM, first compound 0.0316 µM
[20] = second compound 1 µM, first compound 0.1 µM
[21] = second compound 1 µM, first compound 0.316 µM
[22] = second compound 1 µM, first compound 1 µM
[23] = second compound 1 µM, first compound 3.16 µM
[24] = second compound 1 µM, first compound 10 µM
[25] = second compound 3.16 µM, first compound 0.0316 µM
[26] = second compound 3.16 µM, first compound 0.1 µM
[27] = second compound 3.16 µM, first compound 0.316 µM
[28] = second compound 3.16 µM, first compound 1 µM
[29] = second compound 3.16 µM, first compound 3.16 µM
[30] = second compound 3.16 µM, first compound 10 µM
[31] = second compound 10 µM, first compound 0.0316 µM
[32] = second compound 10 µM, first compound 0.1 µM
[33] = second compound 10 µM, first compound 0.316 µM
[34] = second compound 10 µM, first compound 1 µM
[35] = second compound 10 µM, first compound 3.16 µM
[36] = second compound 10 µM, first compound 10 µM
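Note: spheroids exposed to the agents for one week before reading.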
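Throughout, for viability, T/C: percent of vehicle DMSO control viability so 100% = untreated growth.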

COc1ncnc(C2CC2)c1-c1ncc2cnn(Cc3ccc(-c4nc(C(F)(F)F)cn4C(C)C)cc3)c2n1 + Cc1[nH]c2ccc(F)cc2c1-c1nc2c3cccnc3c3ncccc3c2[nH]1
inactive: viability, T/C [1] 130% | viability, T/C [2] 124% | viability, T/C [3] 125% | viability, T/C [4] 93.1% | viability, T/C [5] 119% | viability, T/C [6] 112% | viability, T/C [7] 116% | viability, T/C [8] 94.5% | viability, T/C [9] 103% | viability, T/C [10] 91.8% | viability, T/C [11] 114% | viability, T/C [12] 130% | viability, T/C [13] 94.3% | viability, T/C [14] 93.3% | viability, T/C [15] 82% | viability, T/C [16] 93.1% | viability, T/C [17] 126% | viability, T/C [18] 105% | viability, T/C [19] 51.1% | viability, T/C [20] 76.1% | viability, T/C [21] 74.5% | viability, T/C [22] 58% | viability, T/C [23] 66.2% | viability, T/C [24] 78.3% | viability, T/C [25] 38% | viability, T/C [26] 31.1% | viability, T/C [27] 39.2% | viability, T/C [28] 34.2% | viability, T/C [29] 41.8% | viability, T/C [30] 38.7% | viability, T/C [31] 65% | viability, T/C [32] 65% | viability, T/C [33] 69.6% | viability, T/C [34] 57.2% | viability, T/C [35] 77.7% | viability, T/C [36] 105%
< 0.0316 µM: IC50 (second compound 3.16 µM)
> 10 µM: IC50 (second compound 0.0316 µM) | IC50 (second compound 0.1 µM) | IC50 (second compound 0.316 µM) | IC50 (second compound 1 µM) | IC50 (second compound 10 µM)

Cc1cccc(N(C)C(=O)C2C(O)CCN2c2nc(C)cc(C(F)(F)F)c2C#N)c1 (centres undefined) + Cc1[nH]c2ccc(F)cc2c1-c1nc2c3cccnc3c3ncccc3c2[nH]1
inactive: viability, T/C [1] 114% | viability, T/C [2] 113% | viability, T/C [3] 112% | viability, T/C [4] 82% | viability, T/C [5] 104% | viability, T/C [6] 100% | viability, T/C [7] 110% | viability, T/C [8] 112% | viability, T/C [9] 98% | viability, T/C [10] 94.1% | viability, T/C [11] 104% | viability, T/C [12] 81.7% | viability, T/C [13] 99.8% | viability, T/C [14] 90.3% | viability, T/C [15] 80.9% | viability, T/C [16] 79.2% | viability, T/C [17] 83.9% | viability, T/C [18] 92.7% | viability, T/C [19] 58.6% | viability, T/C [20] 52.7% | viability, T/C [21] 56.2% | viability, T/C [22] 45% | viability, T/C [23] 71.1% | viability, T/C [24] 57.7% | viability, T/C [25] 40.8% | viability, T/C [26] 45.4% | viability, T/C [27] 52.6% | viability, T/C [28] 34.9% | viability, T/C [29] 39.5% | viability, T/C [30] 36.1% | viability, T/C [31] 68.4% | viability, T/C [32] 44.8% | viability, T/C [33] 53.5% | viability, T/C [34] 67.3% | viability, T/C [35] 58% | viability, T/C [36] 61.6%
> 10 µM: IC50 (second compound 0.0316 µM) | IC50 (second compound 0.1 µM) | IC50 (second compound 0.316 µM) | IC50 (second compound 1 µM) | IC50 (second compound 10 µM)
< 0.0316 µM: IC50 (second compound 3.16 µM)
